Patent publication US20200325543A1, “DIAGNOSTIC METHOD” (TOLREMO THERAPEUTICS AG, priority 2017, published 2020)
Values joined by “and” are separate entries in the source; they are usually repeats but may differ in a detail not shown here. Equal values may be shown once. Where a name gives a salt, the structure may show the parent alone. Read-outs that look alike come from different tables or passages of the source.

Tested on: SOX2
Test: Screen of a library of FDA-approved drugs for SOX2 antibody staining in A375 cells treated with PLX4720 and AZD6244
Conditions: for cor. loess: normalized and geometry-corrected (loess) signal; for norm: signal after plate normalization
[1] = A375 cells, 5 uM test drug with 1 uM PLX4720 and 0.5 uM AZD6244, 24 h
[2] = A375 cells, 5 uM test drug with 1 uM PLX4720 and 0.5 uM AZD6244, 24 h, raw signal (ratio of FL2 SOX2 antibody and FL3 nuclear staining), screen run in duplicate
[3] = Z-test against negative controls (DMSO), single dose 5 uM

In the case of `Cc1cc(Nc2ncc(Cl)c(Nc3ccccc3S(=O)(=O)C(C)C)n2)c(OC(C)C)cc1C1CCNCC1` [LDK378], the cor. loess [1] is reported as 3.065, the raw [2] is reported as 0.8857 and the norm [1] is reported as 3.411. The z [3] was 23.92.
`C[C@H]1C[C@@H]2[C@H]([C@@H](O)C[C@@]3(C)[C@H]2CC[C@]3(O)C(=O)COC(=O)CCC(=O)O)[C@@]2(C)C=CC(=O)C=C12` [METHYLPREDNISOLONE SODIUM SUCCINATE] was tested, and the cor. loess [1] was 0.4008, the raw [2] was 0.9806 and the norm [1] was 0.4166. For the same compound, the z [3] was 5.452.
With `Cc1c(OCC(F)(F)F)ccnc1C[S+]([O-])c1nc2ccccc2[nH]1` (centres unmarked) [LANSOPRAZOLE] the cor. loess [1] was 0.2732, the raw [2] was 0.9819 and the norm [1] was 0.3712. It also gave a z [3] of 3.717.
Work on `CC(=O)OCC(=O)[C@@]12OC3(CCCC3)O[C@@H]1C[C@H]1[C@@H]3CCC4=CC(=O)C=C[C@]4(C)[C@@]3(F)[C@@H](O)C[C@@]12C` [AMCINONIDE] yielded a cor. loess [1] of 0.491, a raw [2] of 0.9761 and a norm [1] of 0.5647. It also gave a z [3] of 6.68.
Work on `[H]/N=C(/NCCCCC)N/N=C/c1c[nH]c2ccc(OC)cc12` [TEGASEROD MALEATE] yielded a cor. loess [1] of 0.2864, a raw [2] of 0.9849 and a norm [1] of 0.2748. The z [3] was 3.897.
In the case of `COc1cc([C@@H]2c3cc4c(cc3[C@@H](O[C@@H]3O[C@@H]5CO[C@@H](c6cccs6)O[C@H]5[C@H](O)[C@H]3O)[C@H]3COC(=O)[C@H]23)OCO4)cc(OC)c1O` [TENIPOSIDE], the cor. loess [1] is reported as 0.6446, the raw [2] is reported as 0.9667 and the norm [1] is reported as 0.8759. For the same compound, the z [3] was 8.769.
`Nc1ccc2cc3ccc(N)cc3nc2c1` [PROFLAVINE HEMISULFATE] showed a cor. loess [1] of 0.3381, a raw [2] of 0.9828 and a norm [1] of 0.2862. The z [3] was 3.749.
With `O=c1[nH]c(=O)n([C@H]2C[C@H](O)[C@@H](CO)O2)cc1F` [FLOXURIDINE] the cor. loess [1] was 0.3344, the raw [2] was 0.9795 and the norm [1] was 0.4513. It also gave a z [3] of 4.549.
With `C[C@H]1[C@@H](O)O[C@@H]2O[C@@]3(C)CC[C@H]4[C@H](C)CC[C@@H]1[C@@]24OO3` [ARTENIMOL] the cor. loess [1] was 0.4829, the raw [2] was 0.978 and the norm [1] was 0.4488. It also gave a z [3] of 5.354.
Compound `CC(C)Oc1ccc2c(=O)c(-c3ccccc3)coc2c1` [IPRIFLAVONE] has a cor. loess [1] of 0.3885, a raw [2] of 0.9807 and a norm [1] of 0.3563. For the same compound, the z [3] was 4.307.
In the case of `CC(=O)OCC(=O)[C@@]1(O)[C@H](C)C[C@H]2[C@@H]3CCC4=CC(=O)C=C[C@]4(C)[C@@]3(F)[C@@H](O)C[C@@]21C` [DEXAMETHASONE ACETATE], the cor. loess [1] is reported as 0.4615, the raw [2] is reported as 0.9769 and the norm [1] is reported as 0.5088. It also gave a z [3] of 3.803.
HYDROCORTISONE HEMISUCCINATE showed a z of 3.809, a cor. loess [1] of 0.4622 and a norm [1] of 0.507.
`CCN(CC)C(=S)SSC(=S)N(CC)CC` was tested, and the cor. loess [1] was 0.5909, the raw [2] was 0.973 and the norm [1] was 0.642. It also gave a z [3] of 4.87.
`CCN(CC)Cc1cc(Nc2ccnc3cc(Cl)ccc23)ccc1O` [AMODIAQUINE DIHYDROCHLORIDE] gave a cor. loess [1] of 0.9308, a raw [2] of 0.9611 and a norm [1] of 1.053. For the same compound, the z [3] was 7.671.
With `CC(=O)c1cc2c(o1)C(=O)c1ccccc1C2=O` [Napabucasin] the cor. loess [1] was 0.8204, the raw [2] was 0.9658 and the norm [1] was 0.8869. The z [3] was 6.402.
`CN1C[C@H](CNC(=O)OCc2ccccc2)C[C@@H]2c3cccc4c3c(cn4C)C[C@H]21` [METERGOUNE] was tested, and the cor. loess [1] was 0.4209, the raw [2] was 0.9793 and the norm [1] was 0.4023. The z [3] was 4.666.
`CN1CCN(c2c(F)cc3c(=O)c(C(=O)O)cn4c3c2SCC4)CC1` [RUFLOXACIN HYDROCHLORIDE] gave a cor. loess [1] of 0.3991, a raw [2] of 0.9796 and a norm [1] of 0.4438. For the same compound, the z [3] was 4.267.
With `C[C@@H]1C[C@H]2[C@@H]3C[C@H](F)C4=CC(=O)C=C[C@]4(C)[C@@]3(F)[C@@H](O)C[C@]2(C)[C@@]1(O)C(=O)COC(=O)C(C)(C)C` [FLUMETHAZONE PIVALATE] the cor. loess [1] was 0.4809, the raw [2] was 0.9766 and the norm [1] was 0.5179. It also gave a z [3] of 3.963.
For `C[C@]12CCC(=O)C(O)=C1CC[C@@H]1[C@@H]2CC[C@]2(C)C(=O)CC[C@@H]12` [FORMESTANE], the cor. loess [1] was 0.4179, the raw [2] was 0.98 and the norm [1] was 0.3818. For the same compound, the z [3] was 4.633.
For `CO[C@H]1C[C@H](O[C@@H]2/C(C)=C/C[C@@H]3C[C@@H](C[C@]4(CC[C@H](C)[C@@H](C5CCCCC5)O4)O3)OC(=O)[C@@H]3C=C(C)/C(=N/O)[C@H]4OC/C(=C\C=C\[C@@H]2C)[C@]43O)O[C@@H](C)[C@@H]1O` [SELAMECTIN], the cor. loess [1] was 0.533, the raw [2] was 0.9768 and the norm [1] was 0.5401. For the same compound, the z [3] was 7.251.
In the case of “GRAMICIDIN [GRAMICIDIN (gramicidin A shown)]”, the z is reported as 4.938, the cor. loess [1] is reported as 0.5992 and the raw [2] is reported as 0.9705. The norm [1] was 0.7289.
In the case of `CN(C)c1ccc(C(=C2C=CC(=[N+](C)C)C=C2)c2ccc(N(C)C)cc2)cc1` [GENTIAN VIOLET], the cor. loess [1] is reported as 1.077, the raw [2] is reported as 0.9601 and the norm [1] is reported as 1.09. It also gave a z [3] of 8.875.
`S=C(NCc1ccc2c(c1)OCO2)N1CCN(c2ncnc3c2oc2ccccc23)CC1` [Amuvatinib (MP-470), Amuvatinib] gave a cor. loess [1] of 0.5191, a raw [2] of 0.9748 and a norm [1] of 0.6031. For the same compound, the z [3] was 4.05.
`CC(=O)OCC(=O)[C@@]12OC(C)(C)O[C@@H]1C[C@H]1[C@@H]3C[C@H](F)C4=CC(=O)C=C[C@]4(C)[C@@]3(F)[C@@H](O)C[C@@]12C` [FLUOCINONIDE] gave a cor. loess [1] of 0.4293, a raw [2] of 0.9797 and a norm [1] of 0.4123. It also gave a z [3] of 3.538.
With `CCCCCCCCCCCCCCCC[N+](C)(C)C.[Br-]` [CETRIMONIUM BROMIDE] the cor. loess [1] was 5.014, the raw [2] was 0.8841 and the norm [1] was 4.765. It also gave a z [3] of 19.51.
`O=C1c2ccccc2C(=O)C1c1ccc(Cl)cc1` [CHLORINDIONE] was tested, and the cor. loess [1] was 0.3463, the raw [2] was 0.9825 and the norm [1] was 0.2966. For the same compound, the z [3] was 3.839.
`C[C@]12C=CC(=O)C=C1CC[C@H]1[C@@H]3C[C@@H](O)[C@](O)(C(=O)CO)[C@@]3(C)C[C@H](O)[C@@]12F` [TRIAMCINOLONE] was tested, and the cor. loess [1] was 0.4006, the raw [2] was 0.9821 and the norm [1] was 0.3941. The z [3] was 3.438.
`CCC(=O)O[C@]1(C(=O)CCl)[C@@H](C)C[C@H]2[C@@H]3C[C@H](F)C4=CC(=O)C=C[C@]4(C)[C@@]3(F)[C@@H](O)C[C@@]21C` [Halobetasol Propionate] was tested, and the cor. loess [1] was 0.4055, the raw [2] was 0.9809 and the norm [1] was 0.3998. The z [3] was 4.335.
With `CC(C)COc1ccc(CNC(=O)N(Cc2ccc(F)cc2)C2CCN(C)CC2)cc1` [Pimavanserin] the cor. loess [1] was 0.7376, the raw [2] was 0.9689 and the norm [1] was 0.7906. It also gave a z [3] of 5.755.
Work on `COc1cc2c(c(OC)c1OC)-c1ccc(OC)c(=O)cc1[C@@H](NC(C)=O)CC2` [COLCHICINE] yielded a cor. loess [1] of 0.7111, a raw [2] of 0.9693 and a norm [1] of 0.7731. The z [3] was 5.86.
For `CCCCc1oc2ccc(NS(C)(=O)=O)cc2c1C(=O)c1ccc(OCCCN(CCCC)CCCC)cc1` [DRONEDARONE HYDROCHLORIDE], the cor. loess [1] was 3.823, the raw [2] was 0.8721 and the norm [1] was 4.004. It also gave a z [3] of 52.01.
`Cc1ccc(-c2nc3ccc(C)cn3c2CC(=O)N(C)C)cc1` [ZOLPIDEM] was tested, and the cor. loess [1] was 0.2522, the raw [2] was 0.9798 and the norm [1] was 0.4412. The z [3] was 3.432.
`COc1ccc(/C=C\c2cc(OC)c(OC)c(OC)c2)cc1OP(=O)([O-])[O-].[Na+].[Na+]` [Fosbretabulin (Combretastatin A4 Phosphate (CA4P)) Disodium] was tested, and the cor. loess [1] was 0.3981, the raw [2] was 0.9814 and the norm [1] was 0.3844. It also gave a z [3] of 4.256.
With `[O-][n+]1ccccc1[S-].[O-][n+]1ccccc1[S-].[Zn+2]` [PYRITHIONE ZINC] the raw was 0.8268 and 0.898 and the z was 15.67 and 26.13.
`CCCCC(CC)CN1CN(CC(CC)CCCC)CC(C)(N)C1` (centres unmarked) [HEXETIDINE] was tested, and the cor. loess [1] was 0.3155, the raw [2] was 0.9834 and the norm [1] was 0.2651. For the same compound, the z [3] was 3.497.
`O=C(CCCCCCNC(=O)c1cnc(N(c2ccccc2)c2ccccc2)nc1)NO` [Rocihnostat (ACY-1215), Rocihnostat] was tested, and the cor. loess [1] was 0.6577, the raw [2] was 0.9705 and the norm [1] was 0.7378. It also gave a z [3] of 5.132.
With `CCCCN1CCCCC1C(=O)Nc1c(C)cccc1C` (centres unmarked) [BUPIVACAINE HYDROCHLORIDE] the cor. loess [1] was 0.2934, the raw [2] was 0.9835 and the norm [1] was 0.3196. For the same compound, the z [3] was 3.991.
`CCC(=O)O[C@]1(C(=O)SCF)[C@H](C)C[C@H]2[C@@H]3C[C@H](F)C4=CC(=O)C=C[C@]4(C)[C@@]3(F)[C@@H](O)C[C@@]21C` [FLUTICASONE PROPIONATE] gave a cor. loess [1] of 0.6875, a raw [2] of 0.9704 and a norm [1] of 0.713. It also gave a z [3] of 4.067.
With `COC(=O)[C@]12CCC(C)(C)C[C@H]1[C@H]1C(=O)C=C3[C@@]4(C)C=C(C#N)C(=O)C(C)(C)[C@@H]4CC[C@@]3(C)[C@]1(C)CC2` [Bardoxolone Methyl] the cor. loess [1] was 1.25, the raw [2] was 0.9513 and the norm [1] was 1.346. The z [3] was 9.753.
Work on `COC(=O)C[C@](O)(CCCC(C)(C)O)C(=O)O[C@@H]1C(OC)=C[C@]23CCCN2CCc2cc4c(cc2[C@H]13)OCO4` [Homoharringtonine] yielded a cor. loess [1] of 1.181, a raw [2] of 0.9576 and a norm [1] of 1.161. For the same compound, the z [3] was 8.354.
With `C[C@H]1[C@H](OC(=O)CCC(=O)O)O[C@@H]2O[C@@]3(C)CC[C@H]4[C@H](C)CC[C@@H]1[C@@]24OO3` [ARTESUNATE] the cor. loess [1] was 0.3246, the raw [2] was 0.9835 and the norm [1] was 0.3139. It also gave a z [3] of 3.471.
